# Earlier results as cited in US20160279255A1, “THERAPEUTIC COMPOSITIONS INCLUDING MODULATORS OF deltaPKC AND/OR epsilonPKC, AND USES THEREOF” (priority 2014, published 2016).
# System: several mammalian cell types
# Settings: energy-independent manner; cited from earlier work
substance,measurement,value
"2′,6′-Dmt-D-Arg-Phe-Lys-NH2",penetration of the plasma membrane,readily penetrates the plasma membrane
